Like-named read-outs stand apart in the source and are kept apart here.
What was measured:
[1] = target: recombinant human NF-kappaB-inducing kinase (NIK/MAP3K14) (Homo sapiens, UniProt Q99558); assay: Inhibition of auto-phosphorylation of recombinant human NIK/MAP3K14 activity (AlphaScreen); assay type: biochemical; details: GST-tagged NIK/MAP3K14 1 nM, 5 μM ATP, 2 h at 25° C.; average of values obtained
Experimental: Inhibition of Auto-Phosphorylation of Recombinant Human NF-kappaB-Inducing Kinase (NIK/MAP3K14) Activity (AlphaScreen®)
NIK/MAP3K14 auto-phosphorylation activity was measured using the AlphaScreen® (αscreen) format (Perkin Elmer). All compounds tested were dissolved in dimethyl sulfoxide (DMSO) and further dilutions were made in assay buffer. The final DMSO concentration was 0.7% (v/v) in assays. The assay buffer was 50 mM Tris pH 7.5 containing 1 mM EGTA (ethylene glycol tetraacetic acid), 1 mM DTT (dithiothreitol), 0.1 mM Na3VO4, 5 mM MgCl2, and 0.01% Tween® 20. The assays were carried out in 384 well Proxiplates (Perkin Elmer). The incubations consisted of the compound, 5 μM Adenosine-5′-triphosphate (ATP), and 1 nM NIK/MAP3K14. Incubations were initiated by the addition of GST-tagged NIK/MAP3K14 enzyme, carried out for 2 h at 25° C. and terminated by addition of stop buffer containing anti-phospho-IKK Ser176/180 antibody. Protein A Acceptor and Glutathione-Donor beads were added before reading using an EnVision Multilabel Plate Reader (Perkin Elmer). The signal obtained in the wells was normalized using high (full enzyme activity, 0.7% DMSO) and low controls (no enzyme activity, 0.7% DMSO, no ATP). IC50's were determined by fitting a sigmoidal curve to % inhibition of control versus Log10 compound concentration.

[2] = tested on: p-IKKα levels in L363 (NIK translocated multiple myeloma) cells; assay: Effect of compounds on p-IKKα levels in L363 cells (AlphaLISA SureFire Ultra); assay type: cell-based, human; details: 10 μM MG132, 6 h, average of values obtained, read-out: Assay 2 IC50
Experimental: Effect of Compounds on p-IKKα Levels in L363 (NIK Translocated Multiple Myeloma) Cells
All compounds tested were dissolved and serially diluted in DMSO, 1:3 dilution for 11 points in an Echo compatible plate. 100% DMSO was added to columns 12 and 24 of the plate to serve as high and low signal controls. This compound plate was used to spot 20 nL of compound or DMSO into a Greiner 384 well TC plate (781080). The final DMSO concentration was 0.3% (v/v) in cell assays. Human L363 cells (ATCC) were cultured in RPMI1640 medium supplemented with GlutaMax, non-essential amino acids, sodium pyruvate and 10% fetal bovine serum. Cells were routinely maintained at densities of […]-2×10^6 cells per mL at 37° C. in a humidified 5% CO2 atmosphere incubator. Cells were passaged twice a week splitting back to obtain the low density. The day before the assay, cells were washed twice in HBSS (Hank's Balanced Salt Solution), resuspended in Dulbecco's Modified Eagle Medium (DMEM)+0.5% IgG and protease free BSA (Jackson Immuno Research Laboratories), +/−250 ng/ml recombinant human B-cell activating factor (BAFF/BLyS/TNFSF13B) and incubated overnight at 37° C. in a humidified 5% CO2 atmosphere (bulk stimulation with or without BAFF). The next day, the cell concentration was adjusted to 1×10^7 cells/ml in DMEM+/−250 ng/ml BAFF+/10 μM MG132 and plated at […] into compound or DMSO spotted 384 well TC plates. Seeded cells were incubated at 37° C. in a humidified 5% CO2 atmosphere for 6 h. After 6 h, the plates were removed from the incubator and cell lysis was achieved by the addition of 2.5 μl 5×lysis buffer containing protease and phosphatase inhibitors, followed by shaking on a plate shaker at room temperature for 15 min. At the end of this incubation, lysed cells were sequentially treated and incubated with acceptor and donor bead mixes according to the manufacturer's protocol for a 1 plate/2-incubation suspension cell assay (AlphaLISA SureFire Ultra p-IKKa (Ser 176/180) Assay Kit (Perkin Elmer). Plates were read using an EnVision Multilabel Plate Reader (Perkin Elmer). Within an experiment, a concentration response curve for each compound was run in duplicate. The signal obtained in the test wells was normalized using high signal (BAFF stimulated cells, DMSO, MG132) and low signal (unstimulated cells, DMSO) controls. To determine the IC50, a sigmoidal curve was fitted to the plot of % inhibition versus Log10 compound concentration.

[3] = Homo sapiens, L-363, 6 h, 250 ng/ml BAFF stimulated
[4] = Homo sapiens, L-363, 250 ng/ml BAFF stimulated

Sequence of recombinant human NF-kappaB-inducing kinase (NIK/MAP3K14) (Q99558 whole entry): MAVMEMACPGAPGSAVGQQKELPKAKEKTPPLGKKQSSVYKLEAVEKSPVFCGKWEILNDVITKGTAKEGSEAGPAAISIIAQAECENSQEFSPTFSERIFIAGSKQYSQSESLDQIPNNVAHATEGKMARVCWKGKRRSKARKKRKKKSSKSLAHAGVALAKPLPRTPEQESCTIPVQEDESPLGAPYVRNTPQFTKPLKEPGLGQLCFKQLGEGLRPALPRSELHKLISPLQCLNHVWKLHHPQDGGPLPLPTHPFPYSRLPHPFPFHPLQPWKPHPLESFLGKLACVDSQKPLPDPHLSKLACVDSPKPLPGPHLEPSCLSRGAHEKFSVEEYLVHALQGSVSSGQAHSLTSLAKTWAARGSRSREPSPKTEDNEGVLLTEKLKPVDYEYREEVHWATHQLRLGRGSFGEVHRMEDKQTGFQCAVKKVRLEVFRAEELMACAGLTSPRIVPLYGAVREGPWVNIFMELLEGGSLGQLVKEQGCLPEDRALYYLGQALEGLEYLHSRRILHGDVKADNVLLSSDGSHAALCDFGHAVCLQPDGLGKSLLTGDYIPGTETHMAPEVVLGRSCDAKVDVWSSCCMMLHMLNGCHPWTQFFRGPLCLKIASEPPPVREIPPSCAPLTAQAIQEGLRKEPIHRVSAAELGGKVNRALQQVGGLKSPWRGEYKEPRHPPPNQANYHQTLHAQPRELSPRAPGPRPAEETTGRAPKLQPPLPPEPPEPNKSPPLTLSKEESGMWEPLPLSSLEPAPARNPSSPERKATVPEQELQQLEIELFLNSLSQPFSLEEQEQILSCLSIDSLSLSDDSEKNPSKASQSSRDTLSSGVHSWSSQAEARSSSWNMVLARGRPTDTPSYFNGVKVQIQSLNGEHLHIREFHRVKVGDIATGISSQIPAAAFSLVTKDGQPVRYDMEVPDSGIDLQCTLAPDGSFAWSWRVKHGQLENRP

SMILES	IC50 [1]	IC50 [2, 3]	IC50 ([2]; 250 ng/ml BAFF stimulated)	IC50 [2, 4]
CN1CC[C@@](O)(c2cccc(-n3ncc(-c4c[nH]c5ncccc45)n3)c2)C1=O (single isomer, unassigned) [Example 109]	≤ 100 nM			> 500 nM
CN1CC[C@@](O)(c2cccc(-c3csc(-n4ccc5ncccc54)n3)c2)C1=O (single isomer, unassigned) [Example 111]	100 to 500 nM			> 500 nM
CN1CC[C@@](O)(c2cccc(-n3cnc(-c4c[nH]c5ncccc45)n3)c2)C1=O (single isomer, unassigned) [Example 121]	≤ 100 nM			> 500 nM
CN1CC[C@@](O)(c2cccc(-n3ccc(-c4c[nH]c5ncccc45)n3)c2)C1=O (single isomer, unassigned) [Example 122]	≤ 100 nM			> 500 nM
CN1CC[C@@](O)(c2cccc(-n3cnc(-c4c[nH]c5ncccc45)c3)c2)C1=O (single isomer, unassigned) [Example 124]	> 500 nM			> 500 nM
Cc1cnc2[nH]cc(-c3nc(-c4cccc([C@]5(O)CCN(C)C5=O)c4)cs3)c2c1 [Example 7, (R)-3-Hydroxy-1-methyl-3-(3-(2-(5-methyl-1H-pyrrolo[2,3-b]pyridin-3-yl)thiazol-4-yl)phenyl)pyrrolidin-2-one]	≤ 100 nM			100 to 500 nM
CN1CC[C@@](O)(c2cccc(-c3nc(-c4c[nH]c5ncccc45)cs3)c2)C1=O [Example 8, (R)-3-(3-(4-(1H-Pyrrolo[2,3-b]pyridin-3-yl)thiazol-2-yl)phenyl)-3-hydroxy-1-methylpyrrolidin-2-one]	≤ 100 nM			> 500 nM
CN1CC[C@@](O)(c2cccc(-c3ncc(-c4c[nH]c5ncccc45)s3)c2)C1=O [Example 9, (R)-3-(3-(5-(1H-Pyrrolo[2,3-b]pyridin-3-yl)thiazol-2-yl)phenyl)-3-hydroxy-1-methylpyrrolidin-2-one]	100 to 500 nM			> 500 nM
O[C@@]1(c2cccc(-c3csc(-c4c[nH]c5ncccc45)n3)c2)CCn2ccnc21 [Example 10, (R)-7-(3-(2-(1H-Pyrrolo[2,3-b]pyridin-3-yl)thiazol-4-yl)phenyl)-6,7-dihydro-5H-pyrrolo[1,2-a]imidazol-7-ol]	≤ 100 nM	≤ 100 nM		
O[C@@]1(c2cccc(-c3nc(-c4c[nH]c5nccnc45)cs3)c2)CCn2ccnc21 [Example 11, (R)-7-(3-(4-(5H-Pyrrolo[2,3-b]pyrazin-7-yl)thiazol-2-yl)phenyl)-6,7-dihydro-5H-pyrrolo[1,2-a]imidazol-7-ol]	≤ 100 nM	≤ 100 nM		
O[C@]1(c2cccc(-c3nc(-c4c[nH]c5nccnc45)cs3)c2)CCn2ccnc21 [Example 12, (S)-7-(3-(4-(5H-Pyrrolo[2,3-b]pyrazin-7-yl)thiazol-2-yl)phenyl)-6,7-dihydro-5H-pyrrolo[1,2-a]imidazol-7-ol]	100 to 500 nM	> 500 nM		
O[C@@]1(c2cccc(-c3csc(-c4c[nH]c5nccnc45)n3)c2)C=Cn2ccnc21 [Example 13, (R)-7-(3-(2-(5H-Pyrrolo[2,3-b]pyrazin-7-yl)thiazol-4-yl)phenyl)-7H-pyrrolo[1,2-a]imidazol-7-ol]	≤ 100 nM	> 500 nM		
O[C@]1(c2cccc(-c3csc(-c4c[nH]c5nccnc45)n3)c2)C=Cn2ccnc21 [Example 14, (S)-7-(3-(2-(5H-Pyrrolo[2,3-b]pyrazin-7-yl)thiazol-4-yl)phenyl)-7H-pyrrolo[1,2-a]imidazol-7-ol]	> 500 nM	> 500 nM		
O[C@@]1(c2cccc(-c3nc(-c4c[nH]c5ncccc45)cs3)c2)CCn2ccnc21 [Example 15, (R)-7-(3-(4-(1H-Pyrrolo[2,3-b]pyridin-3-yl)thiazol-2-yl)phenyl)-6,7-dihydro-5H-pyrrolo[1,2-a]imidazol-7-ol]	≤ 100 nM	100 to 500 nM		

Second part, led by results:

IC50 [1]	IC50 [2, 3]	IC50 ([2]; 250 ng/ml BAFF stimulated)	SMILES	IC50 [2, 4]
> 500 nM	> 500 nM		C[C@]1(O)C[C@](O)(c2cccc(-c3csc(-c4c[nH]c5ncccc45)n3)c2)c2ncccc21 (single isomer, unassigned) [Example 105]	
> 500 nM	> 500 nM		C[C@@]1(O)C[C@](O)(c2cccc(-c3csc(-c4c[nH]c5ncccc45)n3)c2)c2ncccc21 (single isomer, unassigned) [Example 107]	
100 to 500 nM	> 500 nM		C[C@]1(O)C[C@@](O)(c2cccc(-c3csc(-c4c[nH]c5ncccc45)n3)c2)c2ncccc21 (single isomer, unassigned) [Example 108]	
≤ 100 nM	> 500 nM		Cc1noc2c1CC[C@@]2(O)c1cccc(-c2csc(-c3c[nH]c4ncccc34)n2)c1 (single isomer, unassigned) [Example 126]	
≤ 100 nM		100 to 500 nM	O[C@@]1(c2cccc(-c3csc(-c4c[nH]c5ncccc45)n3)c2)COc2cccnc21 [Example 16, (R)-3-(3-(2-(1H-Pyrrolo[2,3-b]pyridin-3-yl)thiazol-4-yl)phenyl)-2,3-dihydrofuro[3,2-b]pyridin-3-ol]	
≤ 100 nM		≤ 100 nM	O[C@@]1(c2cccc(-c3csc(-c4c[nH]c5nccnc45)n3)c2)COc2cccnc21 [Example 17, (R)-3-(3-(2-(5H-Pyrrolo[2,3-b]pyrazin-7-yl)thiazol-4-yl)phenyl)-2,3-dihydrofuro[3,2-b]pyridin-3-ol]	
> 500 nM	> 500 nM		[2H]c1[nH]c2nccnc2c1-c1nc(-c2cccc([C@@]3(O)CCn4ccnc43)c2)cs1 [Example 18, (S)-7-(3-(2-(5H-Pyrrolo[2,3-b]pyrazin-7-yl-6-d)thiazol-4-yl)phenyl)-6,7-dihydro-5H-pyrrolo[1,2-a]imidazol-7-ol]	
> 500 nM	> 500 nM		[2H]c1cnc2[nH]cc(-c3nc(-c4cccc([C@@]5(O)CCn6ccnc65)c4)cs3)c2n1 [Example 19, (S)-7-(3-(2-(5H-Pyrrolo[2,3-b]pyrazin-7-yl-2-d)thiazol-4-yl)phenyl)-6,7-dihydro-5H-pyrrolo[1,2-a]imidazol-7-ol]	
≤ 100 nM	≤ 100 nM		O[C@@]1(c2cccc(-c3csc(-c4c[nH]c5ncncc45)n3)c2)CCn2ccnc21 [Example 20, (R)-7-(3-(2-(7H-Pyrrolo[2,3-d]pyrimidin-5-yl)thiazol-4-yl)phenyl)-6,7-dihydro-5H-pyrrolo[1,2-a]imidazol-7-ol]	
100 to 500 nM	> 500 nM		O[C@]1(c2cccc(-c3csc(-c4c[nH]c5ncncc45)n3)c2)CCn2ccnc21 [Example 21, (S)-7-(3-(2-(7H-Pyrrolo[2,3-d]pyrimidin-5-yl)thiazol-4-yl)phenyl)-6,7-dihydro-5H-pyrrolo[1,2-a]imidazol-7-ol]	
≤ 100 nM	≤ 100 nM		O[C@@]1(c2cccc(-c3csc(-c4c[nH]c5ncc(F)cc45)n3)c2)CCn2ccnc21 [Example 24, (R)-7-(3-(2-(5-Fluoro-1H-pyrrolo[2,3-b]pyridin-3-yl)thiazol-4-yl)phenyl)-6,7-dihydro-5H-pyrrolo[1,2-a]imidazol-7-ol]	
